Data as given in US3965109A, “Certain aryl amino pyridines” (priority 1971, dated 1976).

Columns and labels:
[1] = tested on: Puccinia recondita (wheat); assay: Fungicidal test against foliar disease A (foliage spray plus soil drench); format: in vivo; settings: 100 ppm spray and drench; 10 days
[2] = tested on: Plasmopara viticola (vine); assay: Fungicidal test against foliar disease C (foliage spray plus soil drench); format: in vivo; settings: 100 ppm spray and drench; 10 days
Uncinula necator (vine) = assay: Fungicidal test against foliar disease D (foliage spray plus soil drench); format: in vivo; settings: 100 ppm spray and drench; 10 days
[3] = tested on: Piricularia oryzae (rice); format: in vivo; settings: 100 ppm spray and drench; 7 days
[4] = tested on: Tetranychus telarius (red spider mites, adults); assay: Pest toxicity test; format: in vivo; settings: 0.1% by weight; French bean; 3 days
[5] = tested on: Tetranychus telarius (red spider mites, eggs); assay: Pest toxicity test; format: in vivo; settings: 0.1% by weight; French bean; 3 days
Aphis fabae = assay: Pest toxicity test; format: in vivo; settings: 0.1% by weight; broad bean; 2 days
Megoura viceae = assay: Pest toxicity test; format: in vivo; settings: 0.1% by weight; broad bean; 2 days
[6] = tested on: Aedes aegypti (mosquito larvae); assay: Pest toxicity test; format: in vivo; settings: 0.01% by weight; water; 1 day
[7] = tested on: Aedes aegypti (mosquito adults); assay: Pest toxicity test; format: in vivo; settings: 0.01% by weight; plywood; 1 day
[8] = tested on: Musca domestica (houseflies); assay: Pest toxicity test, contact test; format: in vivo; settings: 0.1% by weight; milk/sugar; 2 days; flies sprayed directly
[9] = tested on: Pieris brassicae (cabbage white caterpillars); assay: Pest toxicity test; format: in vivo; settings: 0.1% by weight, 2 days
[10] = tested on: Plutella maculipennis (diamond back moth larvae); assay: Pest toxicity test; format: in vivo
[11] = tested on: Phaedon cochleariae (mustard beetles); assay: Pest toxicity test; format: in vivo
[12] = tested on: Agriolimax reticulatus (slugs); assay: Molluscicidal activity test; format: in vivo, Agriolimax reticulatus (Mull); settings: pellet with 4% by weight; 6 days; 10°C
How it was run: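 Slugs were starved for 24 hours, then housed two per dish, in duplicate, under high humidity at 10°C. They fed on pellets dried to contain 4% w/w of test compound. Mortality was scored on day 6.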

Lettuce = assay: Herbicidal test, pre- and post-emergence; format: in vivo
Tomato = assay: Herbicidal test, pre- and post-emergence; format: in vivo
Wheat [13] = assay: Herbicidal test, pre- and post-emergence; format: in vivo
Maize = assay: Herbicidal test, pre- and post-emergence; format: in vivo
Sugar beet = assay: Further herbicidal test, various rates; format: in vivo; settings: scale 0 to 5 (complete kill)
Kale = assay: Further herbicidal test, various rates; format: in vivo; settings: scale 0 to 5 (complete kill)
Carrot = assay: Further herbicidal test, various rates; format: in vivo; settings: scale 0 to 5 (complete kill)
Pea = assay: Further herbicidal test, various rates; format: in vivo; settings: scale 0 to 5 (complete kill)
Onion = assay: Further herbicidal test, various rates; format: in vivo; settings: scale 0 to 5 (complete kill)
Barley [14] = assay: Further herbicidal test, various rates; format: in vivo; settings: scale 0 to 5 (complete kill)
Rice = assay: Further herbicidal test, various rates; format: in vivo; settings: scale 0 to 5 (complete kill)
Oat = assay: Further herbicidal test, various rates; format: in vivo; settings: scale 0 to 5 (complete kill)
Barley [15] = assay: Selective herbicidal activity; format: in vivo
From the text: (§1) This Example illustrates the selective herbicidal activity of compounds No. 5 and 12 of Table 1. The compounds, formulated as in Example 5 were sprayed on to pots of soil previously sown with seeds of the plant species shown in Tables 13 and 14.
(§2) Table 14 gives the results for compound No. 12 of Table 1 The figures are assessments of damage to the plants 23 days after treatment, on a scale of 0 to 5 where 0 is no effect and 5 is complete kill

Wheat [16] = assay: Selective herbicidal activity; format: in vivo
From the text: as §1, §2

broadleaved plants = assay: Selective herbicidal activity; format: in vivo; settings: Tables 13 and 14
From the text: as §1, §2

Redshank = assay: Selective herbicidal activity; format: in vivo, Polygonum persicaria; settings: 2 kg/hectare; 23 days; scale 0 to 5 (complete kill)
From the text: as §1
Redshank Polygonum persicaria

Mayweed = assay: Selective herbicidal activity; format: in vivo, Tripleurospermum maritimum ssp. inodorum; settings: 2 kg/hectare; 23 days; scale 0 to 5 (complete kill)
From the text: as §1
Mayweed Tripleurospermum maritimum

Speedwell = assay: Selective herbicidal activity; format: in vivo, Veronica spp; settings: 2 kg/hectare; 23 days; scale 0 to 5 (complete kill)
From the text: as §1

Knotgrass = assay: Selective herbicidal activity; format: in vivo, Polygonum aviculare; settings: 2 kg/hectare; 23 days; scale 0 to 5 (complete kill)
From the text: as §1, §2
Knotgrass Polygonum aviculare

Corn Marigold = assay: Selective herbicidal activity; format: in vivo, Chrysanthemum segetum; settings: 2 kg/hectare; 23 days; scale 0 to 5 (complete kill)
From the text: as §1, §2
Corn marigold Chrysanthemum segetum

[17] = tested on: larvae of the blowfly (Lucilia serrata); assay: Insecticidal test on blowfly larvae on treated filter paper; format: in vivo; settings: scale of 1 to 6; filter paper with horse serum
[18] = tested on: larvae of the tick Boophilus microplus; assay: Similar test on tick larvae on filter paper without horse serum; format: in vivo
[19] = 10 lb/acre (11.2 kg/ha), scale 0 (no effect) to 3 (complete kill)
[20] = 2 kg/hectare, 23 days, scale 0 to 5 (complete kill)
[21] = 0.1% by weight, mustard/paper, 2 days
[22] = 10 kg/ha, scale 0 to 3 (complete kill)

SMILES: O=[N+]([O-])c1c(F)c(F)c(Nc2c(Cl)c(F)nc(F)c2Cl)c(F)c1F [Compound 12, 3,5-Dichloro-2,6-difluoro-4(4-nitro 2,3,5,6-tetrafluoroanilino) pyridine]
- Amount of disease grading, disease A [1]: 2 (6 to 25)
- Amount of disease grading, disease C [2]: 3 (0 to 5)
- Amount of disease grading, disease D (Uncinula necator (vine)): 3 (0 to 5)
- Amount of disease grading, disease E [3]: 0 (61 to 100)
- Mortality grading (kill) [4]: 3 (3 represents over 90% kill)
- Mortality grading (kill) [5]: 3 (3 represents over 90% kill)
- Mortality grading (kill) (Aphis fabae): 3 (3 represents over 90% kill)
- Mortality grading (kill) (Megoura viceae): 3 (3 represents over 90% kill)
- Mortality grading (kill) [6]: 3 (3 represents over 90% kill)
- Mortality grading (kill) [7]: 0 (O represents less than 30% kill)
- Mortality grading (kill), contact test [8]: 2 (2 represents 60 - 90% kill)
- Mortality grading (kill) [9]: 0 (O represents less than 30% kill)
- Mortality grading (kill) ([10]; in vivo): 0 (key: O represents less than 30% kill; 1 represents 30 - 49% kill; 2 represents 60 - 90% kill; 3 represents over 90% kill; C indicates a chemosterilant effect.; A indicates an antifeeding effect.)
- Mortality grading (kill) ([11]; in vivo): 0 (key: O represents less than 30% kill; 1 represents 30 - 49% kill; 2 represents 60 - 90% kill; 3 represents over 90% kill; C indicates a chemosterilant effect.; A indicates an antifeeding effect.)
- % Kill of slugs [12]: 50%
- Damage to plants, post-emergence (Lettuce; [19]): 3
- Damage to plants, pre-emergence (Lettuce; [19]): 3
- Damage to plants, post-emergence (Tomato; [19]): 3
- Damage to plants, pre-emergence (Tomato; [19]): 3
- Damage to plants, post-emergence (Wheat [13]; [19]): 0
- Damage to plants, pre-emergence (Wheat [13]; [19]): 3
- Damage to plants, post-emergence (Maize; [19]): 1
- Damage to plants, pre-emergence (Maize; [19]): 3
- Damage to plants, post-emergence (Sugar beet; 5 lb/acre): 5
- Damage to plants, pre-emergence (Sugar beet; 5 lb/acre): 4
- Damage to plants, post-emergence (Kale; 5 lb/acre): 5
- Damage to plants, pre-emergence (Kale; 5 lb/acre): 4
- Damage to plants, post-emergence (Carrot; 5 lb/acre): 5
- Damage to plants, pre-emergence (Carrot; 5 lb/acre): 4
- Damage to plants, post-emergence (Pea; 5 lb/acre): 1
- Damage to plants, pre-emergence (Pea; 5 lb/acre): 3
- Damage to plants, post-emergence (Onion; 5 lb/acre): 0
- Damage to plants, post-emergence (Barley [14]; 5 lb/acre): 2
- Damage to plants, post-emergence (Rice; 5 lb/acre): 0
- Damage to plants, post-emergence (Oat; 5 lb/acre): 0
- Damage to plants, pre-emergence (Oat; 5 lb/acre): 0
- Damage to plants (Barley [15]; [20]): 1
- damage to barley (in words) (Barley [15]; Tables 13 and 14): undamaged
- Damage to plants (Wheat [16]; [20]): 0
- damage to wheat (in words) (Wheat [16]; Tables 13 and 14): undamaged
- damage to the broadleaved plants (in words) (broadleaved plants): caused damage to the broadleaved plants
- Damage to plants (Redshank): 5
- Damage to plants (Mayweed): 5
- Damage to plants (Speedwell): 0
- Damage to plants (Knotgrass): 4
- Damage to plants (Corn Marigold): 3.5

SMILES: O=[N+]([O-])c1ccc(Nc2c(F)c(F)nc(F)c2F)c(C(F)(F)F)c1 [Compound 28, 4-(4-Nitro-2-trifluoromethylanilino)-tetrafluoropyridine]
- Amount of disease grading, disease A (Table 4) [1]: 0 (61 to 100)
- Amount of disease grading, disease C (Table 4) [2]: 3 (0 to 5)
- Amount of disease grading, disease D (Table 4) (Uncinula necator (vine)): 3 (0 to 5)
- Mortality grading (kill) [4]: 3 (3 represents over 90% kill)
- Mortality grading (kill) [5]: 3 (3 represents over 90% kill)
- Mortality grading (kill) (Aphis fabae): 3 (3 represents over 90% kill)
- Mortality grading (kill) (Megoura viceae): 3 (3 represents over 90% kill)
- Mortality grading (kill) [6]: 3 (3 represents over 90% kill)
- Mortality grading (kill) [7]: 3 (3 represents over 90% kill)
- Mortality grading (kill), contact test [8]: 3 (3 represents over 90% kill)
- Mortality grading (kill) [9]: 3 (3 represents over 90% kill)
- Mortality grading (kill) [10, 21]: 3 (3 represents over 90% kill)
- Mortality grading (kill) [11, 21]: 3 (3 represents over 90% kill)
- Damage to plants, post-emergence (Lettuce; [22]): 3
- Damage to plants, pre-emergence (Lettuce; [22]): 3
- Damage to plants, post-emergence (Tomato; [22]): 3
- Damage to plants, pre-emergence (Tomato; [22]): 3
- Damage to plants, post-emergence (Wheat [13]; [22]): 1
- Damage to plants, pre-emergence (Wheat [13]; [22]): 3
- Damage to plants, post-emergence (Maize; [22]): 0
- Damage to plants, pre-emergence (Maize; [22]): 0
- Damage to plants, post-emergence (Sugar beet; 1 kg/hectare): 5
- Damage to plants, pre-emergence (Sugar beet; 1 kg/hectare): 5
- Damage to plants, post-emergence (Sugar beet; 5 kg/hectare): 5
- Damage to plants, pre-emergence (Sugar beet; 5 kg/hectare): 5
- Damage to plants, post-emergence (Kale; 1 kg/hectare): 5
- Damage to plants, pre-emergence (Kale; 1 kg/hectare): 4
- Damage to plants, post-emergence (Kale; 5 kg/hectare): 4
- Damage to plants, pre-emergence (Kale; 5 kg/hectare): 5
- Damage to plants, post-emergence (Carrot; 1 kg/hectare): 3
- Damage to plants, pre-emergence (Carrot; 1 kg/hectare): 4
- Damage to plants, post-emergence (Carrot; 5 kg/hectare): 4
- Damage to plants, pre-emergence (Carrot; 5 kg/hectare): 5
- Damage to plants, pre-emergence (Pea; 1 kg/hectare): 5
- Damage to plants, post-emergence (Pea; 5 kg/hectare): 0
- Damage to plants, pre-emergence (Pea; 5 kg/hectare): 5
- Damage to plants, post-emergence (Onion; 1 kg/hectare): 3
- Damage to plants, pre-emergence (Onion; 1 kg/hectare): 5
- Damage to plants, post-emergence (Onion; 5 kg/hectare): 0
- Damage to plants, pre-emergence (Onion; 5 kg/hectare): 5
- Damage to plants, post-emergence (Barley [14]; 1 kg/hectare): 1
- Damage to plants, pre-emergence (Barley [14]; 1 kg/hectare): 4
- Damage to plants, post-emergence (Barley [14]; 5 kg/hectare): 0
- Damage to plants, pre-emergence (Barley [14]; 5 kg/hectare): 5
- Damage to plants, post-emergence (Rice; 1 kg/hectare): 0
- Damage to plants, pre-emergence (Rice; 1 kg/hectare): 4
- Damage to plants, post-emergence (Rice; 5 kg/hectare): 0
- Damage to plants, pre-emergence (Rice; 5 kg/hectare): 5
- Damage to plants, post-emergence (Oat; 1 kg/hectare): 2
- Damage to plants, pre-emergence (Oat; 1 kg/hectare): 4
- Damage to plants, post-emergence (Oat; 5 kg/hectare): 0
- Damage to plants, pre-emergence (Oat; 5 kg/hectare): 5
- Activity relative to lindane [17]: 6 (6 represents activity 10 times that of the standard)
- times more toxic than lindane [18]: 10 times
